Values of other authors, collected in patent US6071534A, “Multivesicular liposomes with controlled release of active agents encapsulated in the presence of a hydrochloride” (priority 1998, dated 2000).

Conditions: after IP, IV, IT, IA, IM or SC dose

Nc1ccn([C@@H]2O[C@H](CO)[C@@H](O)[C@@H]2O)c(=O)n1 [cytarabine, cytosine arabinoside]
half-life: very short
